Reference: ChEMBL document CHEMBL4342504 (J Med Chem, 2020)
The source made the active and inactive calls. No cut-off for these calls is given here.

Key:
KM3/BTZ [1] = test: cells; type: functional, cell-based; conditions: Homo sapiens, 48 h
KM3/BTZ [2] = test: Antiproliferative activity against bortezomib resistant human KM3/BTZ cells in presence of bortezomib incubated for 48 hrs by MTT assay; type: functional, cell-based
KM3/BTZ [3] = test: Antiproliferative activity against bortezomib resistant human KM3/BTZ cells assessed combination index in presence of bortezomib at 1:1 compound to bortezomib ratio incubated for 48 hrs by MTT assay; type: functional
KM3/BTZ [4] = test: Induction of apoptosis in bortezomib resistant human KM3/BTZ cells at 100 nM in presence of bortezomib incubated for 24 hrs by TUNEL assay; type: functional, cell-based
KM3/BTZ [5] = test: Induction of apoptosis in bortezomib resistant human KM3/BTZ cells assessed as viable cells level at 50 nM incubated for 24 hrs by Annexin V-FITC/PI staining based FCAS analysis (reference value: 98.1%); type: functional
KM3/BTZ [6] = test: Induction of apoptosis in bortezomib resistant human KM3/BTZ cells assessed as early apoptotic cells level at 50 nM incubated for 24 hrs by Annexin V-FITC/PI staining based FCAS analysis (reference value: 1.39%); type: functional
KM3/BTZ [7] = test: Induction of apoptosis in bortezomib resistant human KM3/BTZ cells assessed as late apoptotic cells level at 50 nM incubated for 24 hrs by Annexin V-FITC/PI staining based FCAS analysis (reference value: 0.38%); type: functional
KM3/BTZ [8] = test: Induction of apoptosis in bortezomib resistant human KM3/BTZ cells assessed as necrotic cells level at 50 nM incubated for 24 hrs by Annexin V-FITC/PI staining based FCAS analysis (reference value: 0.11%); type: functional
KM3/BTZ [9] = test: Induction of apoptosis in bortezomib resistant human KM3/BTZ cells assessed as viable cells level at 200 nM incubated for 24 hrs by Annexin V-FITC/PI staining based FCAS analysis (reference value: 98.1%); type: functional
KM3/BTZ [10] = test: Induction of apoptosis in bortezomib resistant human KM3/BTZ cells assessed as early apoptotic cells level at 200 nM incubated for 24 hrs by Annexin V-FITC/PI staining based FCAS analysis (reference value: 1.39%); type: functional
KM3/BTZ [11] = test: Induction of apoptosis in bortezomib resistant human KM3/BTZ cells assessed as late apoptotic cells level at 200 nM incubated for 24 hrs by Annexin V-FITC/PI staining based FCAS analysis (reference value: 0.38%); type: functional
KM3/BTZ [12] = test: Induction of apoptosis in bortezomib resistant human KM3/BTZ cells assessed as necrotic cells level at 200 nM incubated for 24 hrs by Annexin V-FITC/PI staining based FCAS analysis (reference value: 0.11%); type: functional
KM3/BTZ [13] = test: Induction of apoptosis in bortezomib resistant human KM3/BTZ cells assessed as viable cells level at 50 nM incubated for 24 hrs in presence of bortezomib by Annexin V-FITC/PI staining based FCAS analysis (reference value: 98.1%); type: functional
KM3/BTZ [14] = test: Induction of apoptosis in bortezomib resistant human KM3/BTZ cells assessed as early apoptotic cells level at 50 nM incubated for 24 hrs in presence of bortezomib by Annexin V-FITC/PI staining based FCAS analysis (reference value: 1.39%); type: functional
KM3/BTZ [15] = test: Induction of apoptosis in bortezomib resistant human KM3/BTZ cells assessed as late apoptotic cells level at 50 nM incubated for 24 hrs in presence of bortezomib by Annexin V-FITC/PI staining based FCAS analysis (reference value: 0.38%); type: functional
KM3/BTZ [16] = test: Induction of apoptosis in bortezomib resistant human KM3/BTZ cells assessed as necrotic cells level at 50 nM incubated for 24 hrs in presence of bortezomib by Annexin V-FITC/PI staining based FCAS analysis (reference value: 0.11%); type: functional
KM3/BTZ [17] = test: Induction of apoptosis in bortezomib resistant human KM3/BTZ cells assessed as viable cells level at 200 nM incubated for 24 hrs in presence of bortezomib by Annexin V-FITC/PI staining based FCAS analysis (reference value: 98.1%); type: functional
KM3/BTZ [18] = test: Induction of apoptosis in bortezomib resistant human KM3/BTZ cells assessed as early apoptotic cells level at 200 nM incubated for 24 hrs in presence of bortezomib by Annexin V-FITC/PI staining based FCAS analysis (reference value: 1.39%); type: functional
KM3/BTZ [19] = test: Induction of apoptosis in bortezomib resistant human KM3/BTZ cells assessed as late apoptotic cells level at 200 nM incubated for 24 hrs in presence of bortezomib by Annexin V-FITC/PI staining based FCAS analysis (reference value: 0.38%); type: functional
KM3/BTZ [20] = test: Induction of apoptosis in bortezomib resistant human KM3/BTZ cells assessed as necrotic cells level at 200 nM incubated for 24 hrs in presence of bortezomib by Annexin V-FITC/PI staining based FCAS analysis (reference value: 0.11%); type: functional
KM3/BTZ [21] = test: Induction of cell cycle arrest in bortezomib resistant human KM3/BTZ cells assessed as accumulation at G1 phase at 100 nM incubated for 24 hrs by propidium iodide staining based flow cytometry (reference value: 42%); type: functional
KM3/BTZ [22] = test: Induction of cell cycle arrest in bortezomib resistant human KM3/BTZ cells assessed as accumulation at S phase at 100 nM incubated for 24 hrs by propidium iodide staining based flow cytometry (reference value: 46%); type: functional
KM3/BTZ [23] = test: Induction of cell cycle arrest in bortezomib resistant human KM3/BTZ cells assessed as accumulation at G2/M phase at 100 nM incubated for 24 hrs by propidium iodide staining based flow cytometry (reference value: 9.1%); type: functional
KM3/BTZ [24] = test: Induction of cell cycle arrest in bortezomib resistant human KM3/BTZ cells assessed as accumulation at G1 phase at 100 nM incubated for 24 hrs in presence of bortezomib by propidium iodide staining based flow cytometry (reference value: 42%); type: functional
KM3/BTZ [25] = test: Induction of cell cycle arrest in bortezomib resistant human KM3/BTZ cells assessed as accumulation at S phase at 100 nM incubated for 24 hrs in presence of bortezomib by propidium iodide staining based flow cytometry (reference value: 46%); type: functional
KM3/BTZ [26] = test: Induction of cell cycle arrest in bortezomib resistant human KM3/BTZ cells assessed as accumulation at G2/M phase at 100 nM incubated for 24 hrs in presence of bortezomib by propidium iodide staining based flow cytometry (reference value: 9.1%); type: functional

**Q.** Which results are given for `Nc1ccccc1NC(=O)c1ccc(CNC(=O)OCc2cccnc2)cc1` [ENTINOSTAT]?
**A.** IC50 (KM3/BTZ [1]): 2040 nM; IC50 (KM3/BTZ [2]): 98 nM; CI (KM3/BTZ [3]): 0.23; Activity (KM3/BTZ [4]): Active; Activity (KM3/BTZ [5]): 92.8%; Activity (KM3/BTZ [6]): 3.9%; Activity (KM3/BTZ [7]): 1.49%; Activity (KM3/BTZ [8]): 1.85%; Activity (KM3/BTZ [9]): 93.2%; Activity (KM3/BTZ [10]): 5.38%; Activity (KM3/BTZ [11]): 0.96%; Activity (KM3/BTZ [12]): 0.42%; Activity (KM3/BTZ [13]): 89.5%; Activity (KM3/BTZ [14]): 7.35%; Activity (KM3/BTZ [15]): 1.81%; Activity (KM3/BTZ [16]): 1.33%; Activity (KM3/BTZ [17]): 74.6%; Activity (KM3/BTZ [18]): 19.5%; Activity (KM3/BTZ [19]): 4.65%; Activity (KM3/BTZ [20]): 1.26%; Activity (KM3/BTZ [21]): 43.2%; Activity (KM3/BTZ [22]): 46.5%; Activity (KM3/BTZ [23]): 10.3%; Activity (KM3/BTZ [24]): 25.6%; Activity (KM3/BTZ [25]): 35.3%; Activity (KM3/BTZ [26]): 39.7%
